Measurements: patent publication US6756233B1, “Method for measuring free ligands in biological fluids, and assay kits for measuring same” (priority 1985, dated 2004)
“And” between values parts separate entries of the source, which are not always exact repeats. Equal entries are not always repeated. Where two headings read alike, the source gives them in different places.

Key:
transport proteins = conditions: single samples
Method: Free testosterone calibrators, prepared by adding different amounts of testosterone to human serum free of any apparent testosterone, were calibrated by direct equilibrium dialysis and assigned free testosterone values in pg/ml. […] The tubes are incubated for 4 hours at 37° C., then decanted and radioactivity counted. Results are computed by interpolation to from the calibration curve.

[1] = target: T1, sex hormone-binding globulin (SHBG) (Homo sapiens, UniProt P04278); assay: Free testosterone assay, SHBG-spiked serum pool (Example 3); conditions: charcoal-absorbed human serum pool spiked with 400 μg SHBG/milliliter
T1 sequence (P04278 30-402): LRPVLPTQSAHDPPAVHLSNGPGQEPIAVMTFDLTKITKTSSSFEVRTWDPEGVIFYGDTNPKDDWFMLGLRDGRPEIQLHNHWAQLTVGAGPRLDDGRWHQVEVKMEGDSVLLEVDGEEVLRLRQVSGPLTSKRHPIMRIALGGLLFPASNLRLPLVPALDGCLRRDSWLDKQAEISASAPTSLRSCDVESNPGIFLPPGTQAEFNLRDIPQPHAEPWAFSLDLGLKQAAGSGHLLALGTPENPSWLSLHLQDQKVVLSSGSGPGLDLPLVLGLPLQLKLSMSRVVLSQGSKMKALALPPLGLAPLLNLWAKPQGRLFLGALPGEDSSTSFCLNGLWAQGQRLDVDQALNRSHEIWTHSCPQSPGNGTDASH
Method: To investigate the effect of sex hormone-binding globulin (SHBG) levels on the free testosterone assay system, a charcoal-absorbed human serum pool was spiked with 400 μg SHBG/milliliter, a level which is approximately 10 times normal.
Since charcoal absorption removes testosterone from the serum pool, it should have free (and total) testosterone concentrations of zero—that is, percent bound values of approximately 100% B/Bo—both before and after spiking.

albumin and/or SHBG = test system: albumin and/or SHBG; design: species or system human
Method: Testosterone was selected as a representative member of this family. […] This analog tracer was subsequently compounded in 0.01 M HEPES buffer, pH=7.4, containing 1 mg/ml charcoal-absorbed human serum albumin and 0.01% sodium azide. Blocking agents were added, as described in the specific examples below.

albumin [2] = target: T2, albumin (Homo sapiens, UniProt P02768); conditions: cited from earlier work
[3] = test system: anti-T4 antibody-coated tubes; assay: Free T4 assay of 20 samples with tracers holding different blocking agents (Example 5); design: species or system rabbits
Method: The tubes are then incubated for 60 minutes at 37° C. After this incubation the tubes are decanted and the bound radioactivity is counted. Results are calculated from the calibration curve and expressed in ng/dl.
Iodinated T4 analog was compounded as described above and divided into five aliquots. To each aliquot the following reagents were added.
Considering tracer 1 as the reference and comparing the others to it, the following results were obtained.

albumin [4] = target: T2, albumin; assay: Free testosterone assay, effect of oleic acid (Example 6); design: from tissue; host or cells: patient serum samples
Method: Since non-esterified free fatty acids (NEFA) have a higher association constant to albumin than does testosterone, addition of NEFA should displace free testosterone from albumin. This was confirmed by an experiment in which various amounts of oleic acid were added to each of three patient samples.

T2 sequence (P02768 25-609): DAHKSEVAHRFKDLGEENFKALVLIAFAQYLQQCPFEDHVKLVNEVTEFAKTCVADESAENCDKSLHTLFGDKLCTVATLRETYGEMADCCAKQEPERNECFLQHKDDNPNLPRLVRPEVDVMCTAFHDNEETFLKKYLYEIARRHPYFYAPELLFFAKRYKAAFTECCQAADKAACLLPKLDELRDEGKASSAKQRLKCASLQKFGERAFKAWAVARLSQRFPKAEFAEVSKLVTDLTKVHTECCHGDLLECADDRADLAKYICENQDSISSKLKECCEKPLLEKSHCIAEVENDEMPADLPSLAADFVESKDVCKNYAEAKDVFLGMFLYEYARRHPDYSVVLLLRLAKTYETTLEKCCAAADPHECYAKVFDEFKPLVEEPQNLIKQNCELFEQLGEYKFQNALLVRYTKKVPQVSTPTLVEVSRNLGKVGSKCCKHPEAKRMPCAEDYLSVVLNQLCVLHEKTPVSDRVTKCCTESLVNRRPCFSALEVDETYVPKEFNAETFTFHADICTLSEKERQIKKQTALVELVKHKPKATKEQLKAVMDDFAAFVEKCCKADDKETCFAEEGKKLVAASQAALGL

6-hydroxytestosterone-19-carboxymethyl ether histamine
percent bound (% B/Bo) After charcoal absorption (transport proteins; 3rd Trimester): 99% and 96% and 97%
percent bound (% B/Bo) After charcoal absorption (transport proteins; Normal Females): 105% and 104%
percent bound value, B/Bo [1]: 99%
binding to endogenous binders (endogenous binders): does not bind to endogenous binders

O=[N+]([O-])c1ccc(O)c([N+](=O)[O-])c1 [2,4-dinitrophenol]
effect on protein-bound testosterone and tracer (albumin and/or SHBG): displace testosterone from albumin and/or SHBG
association constant, albumin (single aromatic compounds) (albumin [2]): 11,000

O=S(=O)(O)c1cccc2cccc(Nc3ccccc3)c12 [ANS, 8-anilino-1-naphthalenesulfonic acid]
effect on protein-bound testosterone and tracer (albumin and/or SHBG): displace testosterone from albumin and/or SHBG

CCCCCCCC/C=C\CCCCCCCC(=O)O [oleic acid]
oleic acid concentration in the tracer that displaces bound unlabeled T4 from albumin [3]: greater than 1.0 mmol/l
apparent free testosterone level, Mean (albumin [4]; Oleic Acid Added 2.5 mmol/l): 7.9 pg/mL
apparent free testosterone level, Mean (albumin [4]; Oleic Acid Added 5.0 mmol/l): 14.8 pg/mL
apparent free testosterone level, Patients 1-3 (albumin [4]; Oleic Acid Added 5.0 mmol/l): 11.6 pg/mL and 11.1 pg/mL and 21.8 pg/mL
apparent free testosterone level, Mean (albumin [4]; Oleic Acid Added 7.5 mmol/l): 23.2 pg/mL
apparent free testosterone level, Mean (albumin [4]; Oleic Acid Added 10.0 mmol/l): 32.0 pg/mL

O=C1OC(c2ccc(O)c(S(=O)(=O)O)c2)(c2ccc(O)c(S(=O)(=O)O)c2)c2c(Br)c(Br)c(Br)c(Br)c21 [sulfobromophthalein]
effect on protein-bound testosterone and tracer (albumin and/or SHBG): inhibits the binding of the analog tracer to albumin without displacing testosterone bound to albumin
